Entries after “also recorded” stand apart in the source; their conditions may differ.
What was measured:
Type in all cases: in vivo, human
keloid [1] = assay: Prior treatment of keloid nodules with intralesional triamcinolone injections; details: before dupilumab
keloids = assay: Clinical keloid response to dupilumab injections in African American keloid patients
Description: (A) The image depicts keloids before treatment with dupilumab in a patient. (B) The image depicts keloids in a patient after 1.5 months of treatment with dupilumab (subcutaneous injections of 300 mg every week, after 600 mg induction at baseline). (C) The image depicts keloids in the same patient at the end of the third month of treatment with dupilumab.
A subject with keloids, but without other dermatological symptoms, was treated with dupilumab. The subject received 300 mg subcutaneous dupilumab injections, administered weekly.
The inventors observed a significant keloid reduction in yet a third patient treated with dupilumab. Another patient with keloids, but no other dermatological symptoms, received weekly subcutaneous injections of dupilumab (300 mg) and observed a positive response.
In addition, only the weekly injections were sufficient to maintain the size reduction and to treat the pain and irritation associated with the keloids in the afflicted patients.

keloid [2] = assay: Clinical keloid response to dupilumab in a subject with severe atopic dermatitis and two keloid nodules
Source text: (A) On the right popliteal fossa, a large depigmented keloid (denoted by the dotted arrow) measured at 3.5 cm horizontal, 2.8 cm vertical, and 2.1 cm, and a smaller adjacent keloid (denoted by the bold arrow) measured at 1.2 cm horizontal, 0.7 cm vertical, and 1.1 cm, August 2018. […] Images to scale and taken with different perspectives. Th2-specific inflammatory biomarkers (C-E) measured by quantitative real-time PCR in healthy skin and keloid non-lesional (NL) and lesional (LS) skin. Black stars: significance of comparison between keloid skin and controls. Black lines within boxes represent median values; bold red lines represent mean values. Each black dot represents an individual patient; ^+P<0.1, *P<0.05.
A subject afflicted with severe atopic dermatitis (AD) (body surface area/BSA 70%; SCORing of AD/SCORAD, 50; Eczema Area and Severity Index/EASI, 33) post-inflammatory hypopigmentation, and two keloid nodules was treated with dupilumab. […] Both nodules were present for more than 2 years. […] The subject received 300 mg subcutaneous dupilumab injections for severe AD, administered every 2 weeks for a month.

[3] = after 3 months, weekly subcutaneous 300 mg
[4] = after 3 months, weekly subcutaneous 300 mg after 600 mg induction

## C[C@]12C=CC(=O)C=C1CC[C@H]1[C@@H]3C[C@@H](O)[C@](O)(C(=O)CO)[C@@]3(C)C[C@H](O)[C@@]12F [triamcinolone]
Keloid [1]
  keloid response to prior intralesional treatment: minimal improvement

## dupilumab
keloids; 3 months, 300 mg subcutaneous every week after 600 mg induction at baseline
  change in keloid size (FIG. 3 patient): noticeable reduction in the keloid size; also recorded: reduction in size and depth
keloids; [3]
  keloid shrinkage in diameter (FIG. 5 patient): 0.8 cm
  keloid shrinkage in height (FIG. 5 patient): 0.5 cm
keloids; [4]
  keloid shrinkage in diameter (FIG. 4 patient): 2 cm
  keloid shrinkage in height (FIG. 4 patient): 0.5 cm
keloids; injections every other week
  efficacy of every other week injections on keloids: insufficient to treat keloids
keloids; weekly dupilumab injections, African American patients
  patients with reduction in keloid size and shape: three of the three
keloids; weekly subcutaneous 300 mg
  change in keloid size (third patient, FIG. 5): noticeable reduction in the keloid size
Keloid [2]; after dupilumab treatment (seven months), before treatment 1.2 cm horizontal, 0.7 cm vertical, 1.1 cm
  outcome of the smaller adjacent keloid: complete disappearance
Keloid [2]; post-treatment, before treatment 2.1 cm
  larger keloid nodule size, third (unnamed) dimension, after dupilumab: 0.9 cm
Keloid [2]; post-treatment, before treatment 2.8 cm
  larger keloid nodule size, vertical, after dupilumab: 1 cm
Keloid [2]; post-treatment, before treatment 3.5 cm
  larger keloid nodule size, horizontal, after dupilumab: 1.6 cm
Keloid [2]; seven months after dupilumab treatment, 300 mg subcutaneous every 2 weeks for a month, right popliteal fossa
  reduction in size of the large keloid: > 50%

From patent US20220195056A1, “METHOD OF TREATING KELOIDS” (Icahn School of Medicine at Mount Sinai, priority 2019, published 2022)
